Experimental findings from US20080249130A1, “Gut microsomal triglyceride transport protein inhibitors” (Sirtris Pharmaceuticals, Inc., priority 2007, published 2008) are described below.

pIC50: −log10 of the molar value. Several values for one entry are separate records, joined by “and”; a condition that tells them apart may be missing. Identical values can stand only once. Counter-ions that a name gives are not always drawn. Like-named read-outs stand apart in the source and are kept apart here.

The subject of assay [1] is secretion of ApoB by HepG2 cells. In words: ApoB secretion inhibition assay in HepG2 cells (ApoB ELISA). Type of assay: cell-based, human. To be noted: Homo sapiens. Here is the method: The ability of the compounds of the present invention to inhibit the secretion of ApoB can be determined using the following cell-based assay, which measures the secretion of ApoB by HepG2 cells. ApoB has two possible metabolic fates: entrance into the lipoprotein assembly pathway within the lumen of the endoplasmic reticulum (ER), or degradation in the cytoplasm by the ubiquitin-dependent proteasome. The destiny of ApoB is determined by the relative availability of individual lipids, which is controlled by MTP (Davis, Biochim. Biophys. Acta, 1999, 1440, 1-31).
HepG2 cells (ATCC, HB-8065) are seeded in 96-well plates in DMEM with 10% FBS+pen/strep at a density of 1×10^5 cells/well (100 μl /well). Twenty-four hours after seeding, the plate is aspirated and the media changed to DMEM with 1% BSA and pen/strep, and the cells are serum-starved for 24 hours. After 24 hour serum-starvation, the plate is aspirated again and the cells are then treated for 24 hours with or without compound in DMEM with 1% BSA, 0.3 mM OA (OA complexed to BSA at a 2:1 ratio) and pen/strep. The final concentration of DMSO in the assay (from compound and control) is 0.1%. After 24 hour treatment, conditioned media is collected in an empty 96-well plate.
Cellular viability is measured using the cell permeable dye, AlamarBlue™. This dye undergoes electron reduction in viable cells but not dead cells. The reduced dye product gives a fluorescent signal which can be monitored with a fluorescence plate reader (excitation 545 nm and emission 575 nm). The amount of fluorescence generated in a given well is proportional to the number of viable cells. After collection, the 96-well plate is re-fed with 100 μl media (DMEM with 10% FBS) and 10 μl Alamar Blue™ per well, incubated for 2 hours and then read in a fluorescence plate reader.
ApoB secretion from HepG2 cells is quantitated by testing the conditioned media at […] using an ApoB ELISA kit (ALerCHEK) according to the manufacturer's instructions. The ELISA assay for ApoB is performed as follows: a polyclonal antibody against human ApoB (Chemicon) is diluted 1:1000 in carbonate-bicarbonate buffer and 100 μl are added to each well of a 96-well plate (NUNC). After 5 hours incubation at room temperature, the antibody solution is removed and wells are washed four times with PBS/0.05% TweenD 20 (Cayman Chemical Co.). Non-specific sites on the plastic plate are blocked by incubating wells for 1 to 1.5 hours in a solution of 0.5% BSA and 0.1% TweenD 20 made in PBS. One hundred microliters of a 1:20 dilution of growth medium from the HepG2 cells (made in 0.004% TweenD 20/1% BSA in PBS) is added to each well and incubated for 3 hours at room temperature. Wells are aspirated and washed four times (0.05% TweenD 20 in PBS) prior to adding 100 μl of a 1:1000 dilution (5 μg/ml) of the secondary antibody, mouse anti-human ApoB (Chemicon). After 2 hours incubation at room temperature, this solution is aspirated and the wells are again washed 4 times as above. One hundred microliters of peroxidase-conjugated affinity purified goat anti-mouse IgG (H+L) (Jackson ImmunoResearch Laboratories) (1:10,000 dilution in PBS/1% BSA/0.1% TweenD 20) is then added to each well and incubated for 1 hour at room temperature. After aspirating, the wells are washed 4 times as above and 50 μl of 1-step Ultra TMB ELISA reagent (Pierce) is added to each well and incubated for 5 minutes. The reaction is stopped by the addition of 50 μl of 2 NH2SO4 and absorbance of each well is read at 450 nm.
A general note: ELISA stands for enzyme-linked immunosorbent assay.

The target of the next assay is MTP (Homo sapiens, UniProt P55157). In words: In vitro inhibition of MTP, triacylglycerol transfer assay with donor and acceptor liposomes (fluorescence). It counts as biochemical. Here is the method: This assay is commercially available (Cat. #D400, Chylos Inc., New York). Liposomes are pipetted in 5 μl aliquots into the wells of a black fluorescence microtiter plate, followed by addition of 5 μl of water and an incubation of 2-5 min to allow the samples to equilibrate to rt. Next, 5 μl of compound dissolved in DMSO is added to the vesicles. The reaction is initated by the addition of 5 μl MTP, followed by incubation for 30 min at room temperature. […] Time of incubation can be increased to measure low activity in different samples. In such situations, samples are prepared just prior to measuring fluorescence units. For this purpose, isopropanol is added to substrate vesicles about 5 min prior to fluorescence measurement as the fluorescence readings in isopropanol decrease with time.

Setting [2] is: HepG2, Table 6, assay of Example 2, read-out: IC50 ApoB Assay.
Where [3] appears, read: Table 6, assay of Example 3, read-out: IC50 Enzyme Assay.

MTP, sequence (P55157 19-894, species assumed): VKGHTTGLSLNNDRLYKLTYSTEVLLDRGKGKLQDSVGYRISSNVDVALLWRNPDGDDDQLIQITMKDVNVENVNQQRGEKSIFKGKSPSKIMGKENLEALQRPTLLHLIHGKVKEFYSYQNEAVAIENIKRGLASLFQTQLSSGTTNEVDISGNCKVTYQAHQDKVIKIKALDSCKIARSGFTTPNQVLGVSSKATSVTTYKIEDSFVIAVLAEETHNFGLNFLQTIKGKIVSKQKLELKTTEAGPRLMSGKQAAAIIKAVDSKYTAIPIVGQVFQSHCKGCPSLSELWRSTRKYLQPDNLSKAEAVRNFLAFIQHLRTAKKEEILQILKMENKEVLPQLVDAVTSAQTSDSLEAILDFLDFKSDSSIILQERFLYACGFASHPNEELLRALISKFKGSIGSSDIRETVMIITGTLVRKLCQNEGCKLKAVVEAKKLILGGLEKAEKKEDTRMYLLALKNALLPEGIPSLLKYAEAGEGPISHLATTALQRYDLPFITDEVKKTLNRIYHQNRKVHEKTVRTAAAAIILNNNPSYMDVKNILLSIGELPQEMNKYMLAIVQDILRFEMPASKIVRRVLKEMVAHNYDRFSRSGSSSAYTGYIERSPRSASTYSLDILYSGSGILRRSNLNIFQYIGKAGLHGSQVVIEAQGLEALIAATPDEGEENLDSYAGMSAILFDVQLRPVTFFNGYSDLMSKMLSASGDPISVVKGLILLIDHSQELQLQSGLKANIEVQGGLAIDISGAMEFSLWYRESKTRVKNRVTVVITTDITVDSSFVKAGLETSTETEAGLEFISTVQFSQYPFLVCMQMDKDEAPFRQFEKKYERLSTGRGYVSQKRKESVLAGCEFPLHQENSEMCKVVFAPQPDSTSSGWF
MTP, sequence (P07237 18-508 partner, species assumed): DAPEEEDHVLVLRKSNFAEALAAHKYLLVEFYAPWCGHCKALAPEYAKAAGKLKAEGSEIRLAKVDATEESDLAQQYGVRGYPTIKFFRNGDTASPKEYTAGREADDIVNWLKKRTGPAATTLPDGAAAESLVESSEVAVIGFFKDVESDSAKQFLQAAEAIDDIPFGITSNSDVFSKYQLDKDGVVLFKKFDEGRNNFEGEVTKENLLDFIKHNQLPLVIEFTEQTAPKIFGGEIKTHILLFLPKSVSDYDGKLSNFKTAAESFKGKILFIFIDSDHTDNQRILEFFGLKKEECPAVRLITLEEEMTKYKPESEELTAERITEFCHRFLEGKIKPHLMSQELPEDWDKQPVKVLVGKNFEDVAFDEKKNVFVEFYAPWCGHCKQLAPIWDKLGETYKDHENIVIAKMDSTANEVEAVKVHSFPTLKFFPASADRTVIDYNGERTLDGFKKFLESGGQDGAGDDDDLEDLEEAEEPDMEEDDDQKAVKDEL

For the compound `CN(Cc1ccc(F)cc1)C(=O)[C@@H](NC(=O)c1nc2ccc(NC(=O)c3ccccc3-c3ccc(C(C)(C)C)cc3)cc2s1)c1ccccc1` (single isomer, unassigned), the pIC50 (usually the IC50 on a negative log10 scale, so that one unit is a factor of ten) is over 7.00 in assay [1] (HepG2, Tables 2-5, second symbol of the cell, read-out: IC50 Apo B Secretion Assay (Example 2)) and over 7.00 on MTP (Tables 2-5, first symbol of the cell, read-out: IC50 Tri-acylglycerol (TAG) Transfer Assay (Example 3)).

On to `CN(Cc1ccc(F)cc1)C(=O)[C@@H](NC(=O)c1ccc2nc(NC(=O)c3ccccc3C3CCNCC3)ccc2c1)c1ccccc1` [Compound 1, (S)—N-(2-((4-fluorobenzyl)(methyl)amino)-2-oxo-1-phenylethyl)-2-(2-(piperidin-4-yl)benzamido)quinoline-6-carboxamide hydrochloride], for which the negative logarithm of the IC50 (pIC50) was 5.22 in assay [1] (setting [2]) and under 6.00 on MTP (setting [3]).

On to `CN(Cc1ccc(F)cc1)C(=O)[C@@H](NC(=O)c1ccc2nc(NC(=O)c3ccccc3C3CCNC3)ccc2c1)c1ccccc1` (stereo partly drawn) [Compound 2, N—((S)-2-((4-fluorobenzyl)(methyl)amino)-2-oxo-1-phenylethyl)-2-(2-(pyrrolidin-3-yl)benzamido)quinoline-6-carboxamide hydrochloride], for which the pIC50 in assay [1] (setting [2]) is 5.46; at MTP (setting [3]), 6.28.

`CN(Cc1ccc(F)cc1)C(=O)[C@@H](NC(=O)c1ccc2nc(NC(=O)c3ccccc3-c3cn4ccsc4n3)ccc2c1)c1ccccc1` [Compound 3, (S)—N-(2-((4-fluorobenzyl)(methyl)amino)-2-oxo-1-phenylethyl)-2-(2-(imidazo[2,1-b]thiazol-6-yl)benzamido)quinoline-6-carboxamide]: the negative-log IC50 (pIC50) is 8.10 in assay [1] (setting [2]) and 7.96 on MTP (setting [3]).

Turning to `CN(Cc1ccc(F)cc1)C(=O)[C@@H](NC(=O)c1nc2ccc(NC(=O)c3ccccc3-c3ccc(C(C)(C)C)cc3)cc2s1)c1ccccc1` [Compound 4, (S)-6-(4′-tert-butylbiphenyl-2-ylcarboxamido)-N-(2-((4-fluorobenzyl)(methyl)amino)-2-oxo-1-phenylethyl)benzo[d]thiazole-2-carboxamide], the pIC50 in assay [1] (setting [2]) is 8.52; on MTP (setting [3]), 7.86 and 8.52.

Consider `CCCCN(C)C(=O)[C@@H](NC(=O)c1nc2ccc(NC(=O)c3ccccc3-c3ccc(C(C)(C)C)cc3)cc2s1)c1ccccc1` [Compound 5], for which the pIC50 in assay [1] (setting [2]) is 8.19; at MTP (setting [3]) it was 8.02.

Consider `CC(C)(C)c1ccc(-c2ccccc2C(=O)Nc2ccc3nc(C(=O)N[C@H](C(=O)N4CCCC4)c4ccccc4)sc3c2)cc1` [Compound 7], for which the pIC50 in assay [1] (setting [2]) was 9.00; at MTP (setting [3]), 8.59.

Regarding `CCCCCNC(=O)[C@@H](NC(=O)c1nc2ccc(NC(=O)c3ccccc3-c3ccc(C(C)(C)C)cc3)cc2s1)c1ccccc1` [Compound 8], the pIC50 in assay [1] (setting [2]) is 8.51; on MTP (setting [3]), 8.08.

`CN(Cc1ccc(F)cc1)C(=O)[C@@H](NC(=O)C12CCC(CNC(=O)c3ccccc3-c3ccc(C(C)(C)C)cc3)(CC1)CC2)c1ccccc1` [Compound 10, (S)-4-((4′-tert-butylbiphenyl-2-ylcarboxamido)methyl)-N-(2-((4-fluorobenzyl)(methyl)amino)-2-oxo-1-phenylethyl)bicyclo[2.2.2]octane-1-carboxamide]: the pIC50 in assay [1] (setting [2]) is 7.27; on MTP (setting [3]) it was 7.48.

`CC(C)(C)c1ccc(-c2ccccc2C(=O)Nc2nc(-c3cccc(C(=O)N[C@H](C(=O)N4CCCC4)c4ccccc4)c3)cs2)cc1` [Compound 12, (S)-4′-tert-butyl-N-(4-(3-(2-oxo-1-phenyl-2-(pyrrolidin-1-yl)ethylcarbamoyl)phenyl)thiazol-2-yl)biphenyl-2-carboxamide]: the pIC50 in assay [1] (setting [2]) was 7.39; at MTP (setting [3]), 8.70.

Consider `CC(C)(C)c1ccc(-c2ccccc2C(=O)Nc2ccc3nc(C(=O)N[C@H](C(=O)N4CCC(F)(F)C4)c4ccccc4)sc3c2)cc1` [Compound 14], for which the pIC50 was 8.06 in assay [1] (setting [2]) and 8.28 on MTP (setting [3]).

In the case of `CN(Cc1ccc(F)cc1)C(=O)[C@@H](NC(=O)c1nc2ccc(NC(=O)c3ccccc3-c3cn4ccsc4n3)cc2s1)c1ccccc1` [Compound 24, (S)—N-(2-((4-fluorobenzyl)(methyl)amino)-2-oxo-1-phenylethyl)-6-(2-(imidazo[2,1-b]thiazol-6-yl)benzamido)benzo[d]thiazole-2-carboxamide], the pIC50 is 7.63 in assay [1] (setting [2]) and 7.82 on MTP (setting [3]).

With `CN(Cc1ccc(F)cc1)C(=O)[C@@H](NC(=O)c1nc2ccc(NC(=O)c3ccccc3-n3cccc3)cc2s1)c1ccccc1` [Compound 30], the pIC50 in assay [1] (setting [2]) was 7.51; at MTP (setting [3]), 7.35.

As for `CN(Cc1ccc(F)cc1)C(=O)[C@@H](NC(=O)c1nc2ccc(NC(=O)c3ccccc3-c3ccc(C(F)(F)F)cc3)cc2s1)c1ccccc1` [Compound 32], the pIC50 in assay [1] (setting [2]) was 7.76; at MTP (setting [3]), 6.84.

Take `CN(Cc1ccc(F)cc1)C(=O)[C@@H](NC(=O)c1cn2cc(NC(=O)c3ccccc3-c3ccc(C(C)(C)C)cc3)ccc2n1)c1ccccc1` [Compound 33, (S)-6-(4′-tert-butylbiphenyl-2-ylcarboxamido)-N-(2-((4-fluorobenzyl)(methyl)amino)-2-oxo-1-phenylethyl)imidazo[1,2-a]pyridine-2-carboxamide]: the pIC50 is 8.19 in assay [1] (setting [2]) and 8.15 on MTP (setting [3]).

Take `CC(C)(C)c1ccc(-c2ccccc2C(=O)Nc2nc(-c3ccc(C(=O)N[C@H](C(=O)N4CCCC4)c4ccccc4)cc3)cs2)cc1` [Compound 36, (S)-4′-tert-butyl-N-(4-(4-(2-oxo-1-phenyl-2-(pyrrolidin-1-yl)ethylcarbamoyl)phenyl)thiazol-2-yl)biphenyl-2-carboxamide]: the pIC50 in assay [1] (setting [2]) is 8.17; at MTP (setting [3]), 8.24.

With `CN(Cc1ccc(F)cc1)C(=O)[C@@H](NC(=O)c1nc2ccc(NC(=O)c3ccccc3-c3csc(-c4ccccc4)n3)cc2s1)c1ccccc1` [Compound 38], the figures for the pIC50 (in assay [1] (setting [2]); at MTP (setting [3])) were 7.65 and 7.62, respectively.

With `CN(Cc1ccc(F)cc1)C(=O)[C@@H](NC(=O)c1nc2ccc(NC(=O)c3ccccc3-c3cn4ccccc4n3)cc2s1)c1ccccc1` [Compound 40], the values for the pIC50 (in assay [1] (setting [2]); on MTP (setting [3])) were 8.38 and 7.89, respectively.

As for `Cc1cccc(C(=O)Nc2ccc3nc(C(=O)N[C@H](C(=O)N(C)Cc4ccc(F)cc4)c4ccccc4)sc3c2)c1-c1ccc(C(C)(C)C)cc1` [Compound 41], the values for the pIC50 (in assay [1] (setting [2]); on MTP (setting [3])) were 8.54 and 8.33, respectively.

For the compound `Cc1cccc(C(=O)Nc2nc(-c3cccc(C(=O)N[C@H](C(=O)N4CCCC4)c4ccccc4)c3)cs2)c1-c1ccc(C(C)(C)C)cc1` [Compound 42], the pIC50 in assay [1] (setting [2]) is 8.07; on MTP (setting [3]) it was 8.35.

On to `COc1cccc(C(=O)NC23CCC(C(=O)N[C@H](C(=O)N(C)CC(C)C)c4ccccc4)(CC2)CC3)c1-c1ccc(C(C)C)cc1` [Compound 116], for which the negative logarithm of the IC50 (pIC50) in assay [1] (setting [2]) is 6.61.

For the compound `CN(Cc1ccc(F)cc1)C(=O)[C@@H](NC(=O)c1ccc2nc(NC(=O)c3ccccc3-c3ccc(C(C)(C)C)cc3)ccc2c1)c1ccccc1` [compound 3, reference compound], the pIC50 in assay [1] (Table 1, HepG2 cells, read-out: gMTP IC50 ApoB Secretion Assay (Example 2)) was 8.80.
